# Assay results published in US12208108B2, “Drug targets of delayed aging and human brain diseases” (Texas Tech University System, priority 2016, dated 2025).
# Tests used:
# [1] = target: T1, interaction of Aβ with Drp1 (Homo sapiens, UniProt O00429); experiment: Co-immunoprecipitation of Aβ and Drp1 in SHSY5Y cells; assay type: cell-based
# T1 construct: SHSY5Y cells incubated with Aβ peptide 1-42 (20 uM final concentration); Anaspec (Aβ 1-42 peptide); host or cells: SHSY5Y human neuroblastoma cells
# T1 sequence (O00429 whole entry): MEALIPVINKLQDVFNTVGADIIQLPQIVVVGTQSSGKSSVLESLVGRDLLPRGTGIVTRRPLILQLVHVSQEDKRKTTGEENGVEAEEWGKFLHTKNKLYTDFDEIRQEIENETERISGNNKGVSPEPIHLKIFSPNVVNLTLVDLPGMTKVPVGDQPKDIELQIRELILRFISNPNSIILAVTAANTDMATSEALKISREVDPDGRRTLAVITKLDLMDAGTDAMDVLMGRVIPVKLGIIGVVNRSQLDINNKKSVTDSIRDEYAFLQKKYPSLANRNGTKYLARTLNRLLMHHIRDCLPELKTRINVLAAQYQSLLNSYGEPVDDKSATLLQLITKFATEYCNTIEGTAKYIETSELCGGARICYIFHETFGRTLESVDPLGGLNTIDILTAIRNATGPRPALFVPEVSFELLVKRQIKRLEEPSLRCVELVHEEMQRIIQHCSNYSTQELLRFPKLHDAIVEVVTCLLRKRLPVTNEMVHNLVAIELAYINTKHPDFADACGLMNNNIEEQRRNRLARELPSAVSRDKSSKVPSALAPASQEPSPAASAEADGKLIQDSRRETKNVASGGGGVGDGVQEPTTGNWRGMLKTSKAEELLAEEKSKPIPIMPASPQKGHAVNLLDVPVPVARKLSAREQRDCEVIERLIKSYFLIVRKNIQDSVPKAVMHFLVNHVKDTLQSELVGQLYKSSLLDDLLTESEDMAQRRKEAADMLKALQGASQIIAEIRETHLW
# Procedure: Co-immunoprecipitation and immunoblotting analysis using DDQ treated SHSY5Y cells+Aβ. To determine whether DDQ reduces the interaction of Aβ with Drp1 in Aβ incubated cells, the inventors performed co-immunoprecipitation analysis using the Drp1 antibody, and immunoblotting analysis using Aβ recognizing 6E10 antibody and protein lysates of DDQ pre-treated, DDQ post-treated and Aβ incubated cells.
# SHSY5Y cells, mutant APPSwe/Ind cells and co-immunoprecipitation analysis. SHSY5Y cells: To determine whether Aβ interact with Drp1, the inventors used protein lysates from Aβ incubated (DDQ pre-treated, post-treated and untreated) SHSY5Y cells.
# The inventors performed co-immunoprecipitation (co-IP) assays using the Dynabeads Kit for Immunoprecipitation (Invitrogen). Briefly, 50 μL of Dynabeads containing protein G was incubated with 10 μg 6E10 or 10 μg of the Drp1 antibodies (both mono- and polyclonal antibodies; Santa Cruz), with rotation, for 1 h at room temperature. The inventors used all the reagents and buffers provided in the kit. Details of antibodies used for co-IP and western blotting are given Table 5. The Dynabeads-Aβ complex was washed three times with a washing buffer and was then incubated overnight with 400 μg of protein at 4° C., with rotation. […]
# mutant APPSwe/Ind cells = experiment: Sandwich ELISA of Aβ40 and Aβ42; assay type: cell-based, mouse; details: DDQ treated vs DDQ untreated mutant APPSwe/Ind cells, protein lysates
# Excerpt: FIGS. 9A and 9B show sandwich ELISA analysis of Aβ40 and 42 in mutant APPSwe/Ind cells treated and untreated with DDQ. The inventors performed sandwich ELISA using protein lysates mutant APP cells treated and untreated with DDQ.
# DDQ reduces soluble Aβ42 in mutant APPSwe/Ind cells treated with DDQ. To determine whether DDQ reduces Aβ levels, the inventors performed sandwich ELISA using protein lysates of mutant APPSwe/Ind cells treated with DDQ. […] These observations indicate that DDQ reduces Aβ42 levels in mutant APPSwe/Ind cells.
# Mutant APPSwe/Ind cells: The inventors purchased mutant APPSwe cDNA clone (pCAX-APPSwe/Ind) from Addgene—https://www.addgene.org and verified expression of mutant APP APPSwe/Ind cDNA and further sub-cloned into a mammalian expression vector (Arubala P. Reddy—unpublished observations). The inventors transfected mutant APPSwe/Ind cDNA into mouse neuroblastoma (N2a) cells for 24 hrs and after transfection, cells were treated with DDQ (250 nM) for 24 hrs. The inventors harvested mutant APPSwe/Ind cells treated and untreated with DDQ and prepared protein lysates and performed co-immunoprecipitation using Aβ (6E10) antibody and conducted immunoblotting analysis with 6E10 and Drp1 antibodies.
# SHSY5Y cells [2] = experiment: Lipid peroxidation assay (HNE); assay type: cell-based, Human
# Procedure: Lipid peroxidation assay. Lipid peroxidates are unstable indicators of oxidative stress in neurons. 4-hydroxy-2-nonenol (HNE) is the final product of lipid peroxidation that was measured in the cell lysates from SHSY5Y cells of control and experimental treatments (n=4), using an HNE-His ELISA Kit (Cell BioLabs, Inc., San Diego, Calif.) as described in Manczak et al..
# SHSY5Y cells [3] = experiment: ATP levels in isolated mitochondria; assay type: cell-based, Human
# Procedure: ATP levels. ATP levels were measured in mitochondria isolated from SHSY5Y neurons of control and experimental treatments (n=4) using the ATP determination kit (Molecular Probes) as described in Manczak et al..
# [4] = DDQ 250 nM 24 hrs vs untreated cells
smiles,measurement,setting,value
"CCOP(=O)(OCC)C(NCCc1ccc(O)c(O)c1)c1ccnc2ccccc12 (centres unmarked) [DDQ, diethyl(3,4-dihydroxyphenethylamine)(quinolin-4-yl)methylphosphonate]",interaction between Aβ and Drp1,[1]; DDQ post-treated (Aβ + DDQ) vs Aβ incubated cells,reduced interaction
same,interaction between Aβ and Drp1,[1]; DDQ pre-treated (DDQ + Aβ) vs Aβ incubated cells,reduced interaction
same,Aβ40 levels,mutant APPSwe/Ind cells,significantly increased
same,Aβ42 levels,mutant APPSwe/Ind cells,significantly decreased levels
same,lipid peroxidation (4-hydroxy-nonenol) levels,"SHSY5Y cells [2]; Aβ + DDQ (Aβ1-42 6 hrs, then DDQ 24 hrs) vs cells incubated with Aβ alone",significantly reduced levels
same,lipid peroxidation (4-hydroxy-nonenol) levels,SHSY5Y cells [2]; [4],significantly decreased levels
same,lipid peroxidation (4-hydroxy-nonenol) levels,"SHSY5Y cells [2]; DDQ + Aβ (DDQ 24 hrs, then Aβ1-42 6 hrs) vs cells incubated with Aβ alone",significantly reduced levels
same,ATP levels,"SHSY5Y cells [3]; Aβ + DDQ (Aβ1-42 20 μM 6 hrs, then DDQ 24 hrs) vs untreated cells",Significantly increased levels
same,ATP levels,"SHSY5Y cells [3]; Aβ + DDQ (Aβ1-42 6 hrs, then DDQ 24 hrs) vs Aβ incubated cells",Significantly increased ATP levels
same,ATP levels,SHSY5Y cells [3]; [4],Significantly increased levels
same,ATP levels,"SHSY5Y cells [3]; DDQ + Aβ (DDQ 24 hrs, then Aβ1-42 6 hrs) vs Aβ incubated cells",Significantly increased ATP levels
